Test results from patent US11912652B1, “8-(2-hydroxybenzylideneamino)naphthalene-1,3-disulfonic acid as an antioxidant compound” (KING FAISAL UNIVERSITY, priority 2023, dated 2024).

Assay: DPPH (2,2-diphenyl-1-picrylhydrazyl) radical scavenging antioxidant test
Format: biochemical
Settings: 517 nm; for Inhibition (radical scavenging inhibition): 0.2 mL DPPH (0.75 mM), compound 3 μM in ethanol, 30 minutes in the dark
Procedure: The antioxidant properties of the 8-(2-hydroxybenzylideneamino)naphthalene-1,3-disulfonic acid compound were studied by adding 0.2 mL DPPH (0.75 mM)) to 8-(2-hydroxybenzylideneamino)naphthalene-1,3-disulfonic acid (III) (3 μM) in ethanol. After 30 minutes of incubation in the dark, the absorbance was read against a blank at 517 nm. Ascorbic acid (vitamin C) was used as standard antioxidants (positive control). A blank sample was prepared by 0.2 ml of DPPH in 3 mL ethanol. A negative control sample was run using ethanol instead of the sample. The radical scavenging inhibition was calculated using the following equation: […]
The antioxidant activity for the synthesized compound is listed in Table 1, using Vitamin C as a reference.

Row | Structure (SMILES) | Inhibition (radical scavenging inhibition) [%] | antioxidant potential compared to vitamin C (in words) (DPPH in vitro test, vitamin C as positive control)
1 | O=S(=O)(O)c1cc(S(=O)(=O)O)c2c(/N=C/c3ccccc3O)cccc2c1 [Product III, 8-(2-hydroxybenzylideneamino)naphthalene-1,3-disulfonic acid] | 54 | high potential as an antioxidant
2 | O=C1O[C@H]([C@@H](O)CO)C(O)=C1O [vit c, Ascorbic acid, reference compound] | 74 | –
